Here are results for nine compounds from PubChem BioAssay (NCI).

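Results reflect a 48-hour exposure of cells in 96-well plates to compound at five concentrations. GI50: concentration for 50% inhibition of growth. TGI: total growth inhibition.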 Bounds are passed on as bounds.

Among the test systems are DU-145 prostate; HT29 colon; MCF7 breast; NCI-H460 lung; RXF 393 renal; SF-539 CNS; SK-OV-3 ovarian; SN12C renal; U251 CNS; UACC-257 melanoma.
Holding throughout (experiment): growth of human tumour cells (NCI), 48 h

In the case of `CS(=O)(=O)CCNCc1ccc(-c2ccc3ncnc(Nc4ccc(OCc5ccccc5)c(Br)c4)c3c2)o1`, the GI50 in the experiment on DU-145 prostate is 12.6 µM; in the experiment with HT29 colon, 4.72 µM; with MCF7 breast, 7.07 µM; with NCI-H460 lung, 7.87 µM; in the experiment with RXF 393 renal it was 3.71 µM; in the experiment with SF-539 CNS, 5.41 µM. Further, the GI50 was 0.115 µM in the experiment on SK-OV-3 ovarian, 11.9 µM in the experiment on SN12C renal, 7.12 µM in the experiment on U251 CNS and 4.77 µM in the experiment on UACC-257 melanoma. The TGI with DU-145 prostate is more than 25 µM; with HT29 colon, 10.1 µM; in the experiment with MCF7 breast, 24.6 µM; in the experiment on NCI-H460 lung, more than 25 µM; in the experiment on RXF 393 renal, 8.19 µM; in the experiment with SF-539 CNS it was 13.2 µM. Moreover, the TGI in the experiment on SK-OV-3 ovarian was more than 25 µM; in the experiment on SN12C renal, more than 25 µM; with U251 CNS, more than 23 µM; in the experiment with UACC-257 melanoma, 9.3 µM.
Turning to `CNC/C(Cl)=N/S(=O)(=O)c1ccc(C)cc1`, the TGI with DU-145 prostate came to 18.1 µM; in the experiment with HT29 colon, 60.4 µM; in the experiment with MCF7 breast, 23.7 µM; with NCI-H460 lung it was 27.2 µM; in the experiment with RXF 393 renal, 9.34 µM; in the experiment with SF-539 CNS it was 39.7 µM. Moreover, the TGI worked out at 56.6 µM with SK-OV-3 ovarian, 28.1 µM in the experiment with SN12C renal, 20.5 µM with U251 CNS and 25.4 µM in the experiment on UACC-257 melanoma.
On to `Cc1cc(=O)oc2c(C)c(O)ccc12`, for which the TGI in the experiment with DU-145 prostate, in the experiment on HT29 colon, in the experiment on MCF7 breast, in the experiment on NCI-H460 lung, in the experiment on RXF 393 renal and with SF-539 CNS was more than 100 µM throughout. The TGI in the experiment with SN12C renal, with U251 CNS and in the experiment with UACC-257 melanoma was more than 100 µM each time.
In the case of `COc1cccc(/C=C/[N+](=O)[O-])c1`, the GI50 was 2.26 µM in the experiment with DU-145 prostate; 1.92 µM with HT29 colon; 1.2 µM in the experiment on MCF7 breast; 15.1 µM in the experiment with NCI-H460 lung; 1.83 µM in the experiment on RXF 393 renal; 2.64 µM in the experiment with SF-539 CNS. Moreover, the GI50 is 11.5 µM with SK-OV-3 ovarian, 15.2 µM in the experiment on SN12C renal, 4.04 µM in the experiment on U251 CNS and 3.19 µM with UACC-257 melanoma. Further, the TGI was determined as 5.64 µM in the experiment on DU-145 prostate; 4.48 µM in the experiment on HT29 colon; 3.93 µM in the experiment on MCF7 breast; 38.8 µM with NCI-H460 lung; 3.39 µM in the experiment on RXF 393 renal; 8.72 µM in the experiment on SF-539 CNS. The TGI with SK-OV-3 ovarian amounted to 23.6 µM; in the experiment with SN12C renal it was 37.2 µM; in the experiment with U251 CNS it was 14.8 µM; in the experiment on UACC-257 melanoma, 11.6 µM.
As to `Cc1ccc(Cc2cnc(NC(=O)/C=C/c3cccc(C)c3)s2)cc1`, the GI50 with DU-145 prostate was 0.395 µM; with HT29 colon, 0.135 µM; in the experiment on MCF7 breast, 0.103 µM; in the experiment with NCI-H460 lung, 0.064 µM; with RXF 393 renal it was 0.106 µM; in the experiment with SF-539 CNS, 0.149 µM. The GI50 with SK-OV-3 ovarian is 0.85 µM; in the experiment on SN12C renal, 0.393 µM; in the experiment with U251 CNS it was 0.144 µM; in the experiment with UACC-257 melanoma, more than 42.3 µM. For the same compound, the TGI in the experiment on DU-145 prostate is more than 66.3 µM; in the experiment with HT29 colon it was 5.85 µM; in the experiment on MCF7 breast it was more than 100 µM; in the experiment on NCI-H460 lung, 11.8 µM; in the experiment with RXF 393 renal it was 0.671 µM; in the experiment on SF-539 CNS, 0.9 µM. Further, the TGI in the experiment on SK-OV-3 ovarian was more than 59.7 µM; with SN12C renal it was more than 56 µM; with U251 CNS it was 4.97 µM; in the experiment with UACC-257 melanoma it was more than 100 µM.
With `N#CC1=C(N)Oc2c(ccc3ccccc23)C1c1ccccc1` (centres undefined), the GI50 is 0.0468 µM with DU-145 prostate; 0.146 µM in the experiment on HT29 colon; 0.0393 µM in the experiment with MCF7 breast; 0.038 µM with NCI-H460 lung; 0.0311 µM in the experiment with SF-539 CNS; 0.0796 µM in the experiment with SK-OV-3 ovarian. The results for the GI50 in the experiment with SN12C renal, in the experiment on U251 CNS and in the experiment on UACC-257 melanoma were 0.0793 µM, 0.0454 µM and 11.9 µM, respectively. Further, the TGI with DU-145 prostate was determined as 12.8 µM; in the experiment on HT29 colon, 11.1 µM; in the experiment with MCF7 breast, 15.6 µM; in the experiment on NCI-H460 lung, 10.8 µM; in the experiment with SF-539 CNS, 0.158 µM; with SK-OV-3 ovarian, 19 µM. The TGI was found to be 13.7 µM in the experiment on SN12C renal, 15.1 µM in the experiment on U251 CNS and 29.9 µM in the experiment with UACC-257 melanoma.
In the case of `O=S(=O)(NCCCNc1nccc(-c2c(-c3ccc(F)c(O)c3)nc3sccn23)n1)c1ccc(F)cc1`, the GI50 in the experiment with HT29 colon was 2.94 µM; in the experiment on MCF7 breast, 2.39 µM; with NCI-H460 lung, 2.37 µM; in the experiment on RXF 393 renal it was 1.53 µM; with SF-539 CNS, 3.5 µM; in the experiment on SK-OV-3 ovarian, 2.22 µM. Besides, the GI50 is 3.47 µM in the experiment with U251 CNS and 0.262 µM with UACC-257 melanoma. In addition, the TGI in the experiment with HT29 colon amounted to 37.8 µM; in the experiment with MCF7 breast it was 7.76 µM; in the experiment on NCI-H460 lung it was 6.35 µM; with RXF 393 renal it was 4.68 µM; in the experiment with SF-539 CNS, 17.4 µM; in the experiment with SK-OV-3 ovarian, 7.01 µM. Also, the TGI in the experiment on U251 CNS is more than 100 µM; with UACC-257 melanoma, 2.19 µM.
With `O=C(O)c1ccc(Oc2nccc(-c3c(-c4ccc(F)cc4)ncn3C3CCNCC3)n2)cc1`, the GI50 with DU-145 prostate, in the experiment on HT29 colon, with MCF7 breast, with NCI-H460 lung, with RXF 393 renal and in the experiment on SF-539 CNS was more than 25 µM in each case. For the same compound, the GI50 with SK-OV-3 ovarian, in the experiment on SN12C renal and in the experiment with U251 CNS was more than 25 µM each time. Moreover, the TGI with DU-145 prostate, in the experiment with HT29 colon, in the experiment on MCF7 breast, in the experiment on NCI-H460 lung, in the experiment on RXF 393 renal and in the experiment on SF-539 CNS was more than 25 µM throughout. In addition, the TGI with SK-OV-3 ovarian, in the experiment with SN12C renal and with U251 CNS was more than 25 µM each time.
As for `O=C1NC(=O)C(c2ccccc2Cl)=C1Nc1cc(Cl)c(O)c(Cl)c1`, the GI50 is more than 25 µM in the experiment with DU-145 prostate; 14.2 µM in the experiment with HT29 colon; more than 13.8 µM in the experiment on MCF7 breast; more than 25 µM with NCI-H460 lung; 5.98 µM with RXF 393 renal; 13.9 µM in the experiment with SF-539 CNS. The GI50 is 16.3 µM in the experiment with SK-OV-3 ovarian, more than 21.5 µM in the experiment on SN12C renal and 13.3 µM with U251 CNS. The TGI with DU-145 prostate was more than 25 µM; in the experiment on HT29 colon, more than 25 µM; in the experiment with MCF7 breast, more than 25 µM; in the experiment with NCI-H460 lung it was more than 25 µM; with RXF 393 renal, more than 23.5 µM; in the experiment on SF-539 CNS it was more than 25 µM. Besides, the TGI with SK-OV-3 ovarian, in the experiment on SN12C renal and in the experiment with U251 CNS was more than 25 µM in each case.
